Test results: patent US12569434B2, “Formulations of Nebivolol” (EXTROVIS AG, priority 2020, dated 2026)

What was measured:
[1] = assay type: physicochemical; conditions: solution in propylene glycol, pH 3 to 7, 50° C. for 1M and 40° C./75% RH for 6M
Protocol: To evaluate the stability of Nebivolol in suitable liquid vehicle or solubilizer at different pH conditions, pH stability study was performed using 0.1N HCL/0.1N NaOH for pH adjustment. Propylene glycol was used as solubilizer to dissolve Nebivolol to prepare the stock solution. The stock solution was added to water and adjusted the pH with 0.1N HCL/0.1N NaOH at different pH ranging from 3 to 7.

[2] = assay type: physicochemical; conditions: open air exposure, 50° C. for 2 Weeks and 40° C./7.5% RH for 1 month
Protocol: Drug-Excipient compatibility study was carried with excipients such as mannitol, maltitol, dextrates, povidone, methyl paraben, propyl paraben, citric acid, sodium citrate, sodium saccharin. The study was carried out in clear glass vials with open air exposure at stress conditions 50° C. for 2 Weeks and 40° C./[…] (relative humidity) for 1 month.

Cl.OC(CNCC(O)C1CCc2cc(F)ccc2O1)C1CCc2cc(F)ccc2O1 (racemic) [Nebivolol HCl, (1RS,1′RS)-1,1′-[(2RS,2′SR)-bis(6-fluoro-3,4-dihydro-2H-1-benzopyran-2-yl)]-2,2′-iminodiethanol hydrochloride]
Stability of Nebivolol [1]: stable
desfluoro Nebivolol impurity [1]: within the specification limits
Stability of Nebivolol with excipients [2]: stable
desfluoro impurity [2]: within the specification limits
